# Reference: PMC10877631, “Retinylidene chromophore hydrolysis from mammalian visual and non-visual opsins” (The Journal of Biological Chemistry, 2024)
# What was measured:
# bRho = biological target: T1, bRho (Bos taurus, UniProt P02699); test: UV-Vis pigment spectrum; NaBH4 trapping and LC-MS/MS of retinyl peptide and retinyl-Lys; format: binding; conditions: covalent Schiff base to helix VII Lys; dark state; LMNG
# T1 construct: gene RHO; native, from bovine rod outer segments, purified in LMNG
# hBlue-cone opsin = biological target: T2, hBlue-cone opsin (Homo sapiens, UniProt P03999); test: as above; format: binding; conditions: covalent Schiff base to helix VII Lys; dark state; LMNG
# T2 construct: gene OPN1SW; recombinant, purified in LMNG; details only in supplement
# T2 sequence (P03999 1-345): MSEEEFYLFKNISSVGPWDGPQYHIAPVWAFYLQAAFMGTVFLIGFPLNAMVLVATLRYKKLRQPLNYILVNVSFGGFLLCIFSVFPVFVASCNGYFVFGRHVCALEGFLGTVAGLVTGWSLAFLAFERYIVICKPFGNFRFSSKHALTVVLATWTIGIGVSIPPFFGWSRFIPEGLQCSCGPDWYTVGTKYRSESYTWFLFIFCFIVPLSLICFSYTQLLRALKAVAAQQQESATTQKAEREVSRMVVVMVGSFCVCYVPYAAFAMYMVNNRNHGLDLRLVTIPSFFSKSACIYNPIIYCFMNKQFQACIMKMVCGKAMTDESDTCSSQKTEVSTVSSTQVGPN
# [1] = biological target: T3, native bRGR in bRPE microsomal membranes (Bos taurus, UniProt P47803); test: NaBH4 trapping, HPLC and LC-MS/MS after illumination; format: biochemical; conditions: photoisomerization at 530 nm, then Schiff-base hydrolysis; pH 7.4, 140 mM NaCl; native microsomes
# T3 construct: gene RGR; native, untagged, in bovine RPE microsomal membranes; chromophore site given as Lys256
# T3 sequence (P47803 1-291): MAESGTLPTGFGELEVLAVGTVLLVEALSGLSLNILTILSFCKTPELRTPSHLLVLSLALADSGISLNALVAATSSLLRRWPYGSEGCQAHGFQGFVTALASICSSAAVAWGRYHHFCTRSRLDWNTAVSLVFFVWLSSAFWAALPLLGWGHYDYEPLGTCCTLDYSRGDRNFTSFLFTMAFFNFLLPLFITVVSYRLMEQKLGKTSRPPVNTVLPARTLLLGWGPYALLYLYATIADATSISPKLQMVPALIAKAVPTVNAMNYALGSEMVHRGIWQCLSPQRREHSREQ
# hRed-cone opsin = biological target: T4, hRed-cone opsin (Homo sapiens, UniProt P04000); test: UV-Vis pigment spectrum; NaBH4 trapping and LC-MS/MS of retinyl peptide and retinyl-Lys; format: binding; conditions: covalent Schiff base to helix VII Lys; dark state; LMNG
# T4 construct: gene OPN1LW; recombinant, purified in LMNG; details only in supplement
# T4 sequence (P04000 1-364): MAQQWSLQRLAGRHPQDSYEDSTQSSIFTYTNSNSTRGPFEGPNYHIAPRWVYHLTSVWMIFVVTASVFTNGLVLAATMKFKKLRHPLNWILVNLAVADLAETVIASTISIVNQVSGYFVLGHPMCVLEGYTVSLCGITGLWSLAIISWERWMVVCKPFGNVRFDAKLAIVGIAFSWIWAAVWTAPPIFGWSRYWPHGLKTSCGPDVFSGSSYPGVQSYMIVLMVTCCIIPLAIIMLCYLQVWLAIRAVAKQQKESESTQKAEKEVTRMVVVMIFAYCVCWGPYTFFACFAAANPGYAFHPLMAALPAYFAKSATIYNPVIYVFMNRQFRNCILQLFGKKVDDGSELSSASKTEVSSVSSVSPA
# [2] = biological target: T5, bRGR (recombinant, 1D4-tagged) (Bos taurus, UniProt P47803); test: UV-Vis pigment spectrum; NaBH4 trapping and LC-MS/MS of retinyl peptide; format: binding; conditions: covalent Schiff base at Lys256; LMNG micelles; before illumination
# T5 construct: gene RGR; chromophore site given as Lys256
# T5 sequence (P47803 1-291): T3 sequence (P47803 1-291)
# [3] = biological target: T3, native bRGR in bRPE microsomal membranes; test: NaBH4 trapping, proteinase K or pronase digestion, LC-MS/MS; format: binding; conditions: covalent Schiff base at Lys256; native bovine RPE microsomes; before illumination
# T1 sequence (P02699 whole entry): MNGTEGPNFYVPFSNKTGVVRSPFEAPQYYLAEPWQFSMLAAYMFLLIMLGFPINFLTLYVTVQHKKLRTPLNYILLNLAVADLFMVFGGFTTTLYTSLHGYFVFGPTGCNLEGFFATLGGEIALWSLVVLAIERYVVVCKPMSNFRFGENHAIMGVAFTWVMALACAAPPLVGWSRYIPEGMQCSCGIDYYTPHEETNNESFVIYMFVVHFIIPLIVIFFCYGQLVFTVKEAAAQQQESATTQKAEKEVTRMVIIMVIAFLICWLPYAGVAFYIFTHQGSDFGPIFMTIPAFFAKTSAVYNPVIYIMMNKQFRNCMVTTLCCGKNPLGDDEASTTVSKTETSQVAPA
smiles,measurement,setting,value
CC1=C(/C=C/C(C)=C/C=C\C(C)=C\C=O)C(C)(C)CCC1 [11-cis-retinal],UV-Vis pigment spectrum; NaBH4 trapping and LC-MS/MS of retinyl peptide and reti,bRho,the resultant N^ε-retinyl-Lys was predominantly in the 11-cis configuration
same,UV-Vis pigment spectrum; NaBH4 trapping and LC-MS/MS of retinyl peptide and reti,hBlue-cone opsin,the resultant N^ε-retinyl-Lys was predominantly in the 11-cis configuration
same,"NaBH4 trapping, HPLC and LC-MS/MS after illumination",[1],rapid hydrolytic production of 11-cis-retinal by bRGR in native membranes was recapitulated in this study
same,UV-Vis pigment spectrum; NaBH4 trapping and LC-MS/MS of retinyl peptide and reti,hRed-cone opsin,the resultant N^ε-retinyl-Lys was predominantly in the 11-cis configuration
CC1=C(/C=C/C(C)=C/C=C/C(C)=C/C=O)C(C)(C)CCC1 [all-trans-retinal],UV-Vis pigment spectrum; NaBH4 trapping and LC-MS/MS of retinyl peptide,[2],recombinantly produced bRGR adducted with all-trans-retinal was immunopurified in lauryl maltose neopentyl glycol (LMNG) micelles
same,"NaBH4 trapping, proteinase K or pronase digestion, LC-MS/MS",[3],Microsomal bRGR reconstituted with slight excess of all-trans-retinal was analyzed by LC-MS/MS
